For this experiment, the target named is human Factor XIIa (Homo sapiens (Human), UniProt P00748). Briefly: Factor XIIa Assay. It is filed as biochemical. To be noted: purified human Factor XIIa 500 pM; substrate n-Acetyl-Lys-Pro-Arg-AFC 100 μM; pH 7.4; read-out: FXIIa IC50. The protocol: The effectiveness of a compound of the present invention as an inhibitor of Coagulation Factor XIIa can be determined using a relevant purified serine protease, and an appropriate synthetic substrate. The rate of hydrolysis of the chromogenic or fluorogenic substrate by the relevant serine protease was measured both in the absence and presence of compounds of the present invention. Assays were conducted at room temperature or at 37° C. […] A decrease in the rate of fluorescence change in the presence of inhibitor is indicative of enzyme inhibition. Such methods are known to one skilled in the art.
Factor XIIa activity determinations were made in 50 mM HEPES buffer containing 150 mM NaCl, 5 mM CaCl2, and 0.1% PEG 8000 (polyethylene glycol; JT Baker or Fisher Scientific) at pH 7.4. Determinations were made using purified human Factor XIIa at a final concentration of 500 pM (Sekisui Diagnostics) and the synthetic substrate, n-Acetyl-Lys-Pro-Arg-AFC, TFA salt (Sigma #C6608) at a concentration of 100 μM.
Times required to achieve equilibration between enzyme and inhibitor were determined in control experiments. Initial velocities of product formation in the absence (Vo) or presence of inhibitor (Vi) were measured. IC50 was determined as the concentration of I yielding Vi=Vo/2.

The record followed here is patent US10875851B2, “Factor XIIa inhibitors” (Merck Sharp & Dohme Corp., priority 2016, dated 2020).

Molecules are shown by their SMILES.

human Factor XIIa, sequence (P00748 373-615): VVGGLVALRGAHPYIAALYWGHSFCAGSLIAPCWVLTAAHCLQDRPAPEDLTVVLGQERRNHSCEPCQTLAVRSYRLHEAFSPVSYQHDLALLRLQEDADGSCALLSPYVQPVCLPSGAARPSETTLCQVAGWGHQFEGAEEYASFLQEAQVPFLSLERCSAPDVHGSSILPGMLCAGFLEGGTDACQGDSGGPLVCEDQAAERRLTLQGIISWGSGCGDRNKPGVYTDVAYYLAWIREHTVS

As for `NCc1ccc(CNC(=O)[C@@H]2CN(C(=O)Oc3ccccc3Cl)CCN2C(=O)[C@@H](CC2CCCCC2)NC2CCCCC2)cc1` [Example 5, 2-chlorophenyl (3S)-3-{[4-(aminomethyl)benzyl]carbamoyl}-4-(N,3-dicyclohexyl-D-alanyl)piperazine-1-carboxylate], the IC50 turned out to be 5.9 nM.
In the case of `O=C(NCc1cccs1)[C@@H]1CN(C(=O)Oc2cccc3cncnc23)CCN1C(=O)[C@@H](CC1CCCCC1)NC1CCCCC1` [Example 18, quinazolin-8-yl (3S)-4-(N,3-dicyclohexyl-D-alanyl)-3-[(thiophen-2-ylmethyl)carbamoyl]piperazine-1-carboxylate] it was 4.5 nM.
With `NCc1ccc(OC(=O)N2CCN(C(=O)[C@@H](CC3CCCCC3)NC3CCCCC3)[C@H](C(=O)NCc3cccs3)C2)c(Cl)c1` [Example 21, 4-(aminomethyl)-2-chlorophenyl (3S)-4-(N,3-dicyclohexyl-D-alanyl)-3-[(thiophen-2-ylmethyl)carbamoyl]piperazine-1-carboxylate], the IC50 was 6.7 nM.
In the case of `COc1cc(CNC(=O)[C@@H]2CN(C(=O)Oc3cccc4ccccc34)CCN2C(=O)[C@@H](CC2CCCCC2)NC2CCCCC2)ccc1CN` [Example 24, naphthalen-1-yl (3S)-3-{[4-(aminomethyl)-3-methoxybenzyl]carbamoyl}-4-(N,3-dicyclohexyl-D-alanyl)piperazine-1-carboxylate] it was 1.6 nM.
`NCc1ccc(CNC(=O)[C@@H]2CN(C(=O)Oc3cccc4ccccc34)CCN2C(=O)[C@@H](CC2CCCCC2)NC2CCCCC2)cc1` [Example 26, naphthalen-1-yl (3S)-3-{[4-(aminomethyl)benzyl]carbamoyl}-4-(N,3-dicyclohexyl-D-alanyl)piperazine-1-carboxylate]: the IC50 was 8.4 nM.
In the case of `COc1cc(CNC(=O)[C@@H]2CN(C(=O)Oc3cccc4ccccc34)CCN2C(=O)[C@@H](CC2CCCCC2)NC2CCC3(CC2)CCN(Cc2ccccc2)C3)ccc1CN` (stereo partly drawn) [Example 28, naphthalen-1-yl (3S)-3-{[4-(aminomethyl)-3-methoxybenzyl]carbamoyl}-4-[N-(2-benzyl-2-azaspiro[4.5]dec-8-yl)-3-cyclohexyl-D-alanyl]piperazine-1-carboxylate] it was 3.9 nM; in that of `Cc1ncnc2c(OC(=O)N3CCN(C(=O)[C@@H](CC4CCCCC4)NC4CCCCC4)[C@H](C(=O)NCc4cccs4)C3)cccc12` [Example 29, 4-methylquinazolin-8-yl (3S)-4-(N,3-dicyclohexyl-D-alanyl)-3-[(thiophen-2-ylmethyl)carbamoyl]piperazine-1-carboxylate], 3.3 nM.
Regarding `O=C(NCc1cccs1)[C@@H]1CN(C(=O)Oc2cccc3cccnc23)CCN1C(=O)[C@@H](CC1CCCCC1)NC1CCCCC1` [Example 30, quinolin-8-yl (3S)-4-(N,3-dicyclohexyl-D-alanyl)-3-[(thiophen-2-ylmethyl)carbamoyl]piperazine-1-carboxylate], the IC50 was found to be 5.8 nM.
As to `O=C(NCc1cccs1)[C@@H]1CN(C(=O)Oc2ccc(F)c3cccnc23)CCN1C(=O)[C@@H](CC1CCCCC1)NC1CCCCC1` [Example 32, 5-fluoroquinolin-8-yl (3S)-4-(N,3-dicyclohexyl-D-alanyl)-3-[(thiophen-2-ylmethyl)carbamoyl]piperazine-1-carboxylate], the IC50 stood at 5.2 nM.
For `O=C(NCc1cccs1)[C@@H]1CN(C(=O)Oc2cccc3ccc(O)nc23)CCN1C(=O)[C@@H](CC1CCCCC1)NC1CCCCC1` [Example 33, 2-hydroxyquinolin-8-yl (3S)-4-(N,3-dicyclohexyl-D-alanyl)-3-[(thiophen-2-ylmethyl)carbamoyl]piperazine-1-carboxylate], the IC50 stood at 20 nM.
`O=C(NCc1cccs1)[C@@H]1CN(C(=O)Oc2cccc3c2CCNC3)CCN1C(=O)[C@@H](CC1CCCCC1)NC1CCCCC1` [Example 36, 1,2,3,4-tetrahydroisoquinolin-5-yl (3S)-4-(N,3-dicyclohexyl-D-alanyl)-3-[(thiophen-2-ylmethyl)carbamoyl]piperazine-1-carboxylate]: the IC50 was 4.1 nM.
Consider `O=C(NCc1cccs1)[C@@H]1CN(C(=O)Oc2cccc3c2CNCC3)CCN1C(=O)[C@@H](CC1CCCCC1)NC1CCCCC1` [Example 37, 1,2,3,4-tetrahydroisoquinolin-8-yl (3S)-4-(N,3-dicyclohexyl-D-alanyl)-3-[(thiophen-2-ylmethyl)carbamoyl]piperazine-1-carboxylate], for which the IC50 is 5.3 nM.
For the molecule `CS(=O)(=O)N1CCC([C@@H](NC2CCCCC2)C(=O)N2CCN(C(=O)Oc3ccccc3Cl)C[C@H]2C(=O)NCc2cccs2)CC1` [Example 42, 2-chlorophenyl (3S)-4-{(2R)-2-(cyclohexylamino)-2-[1-(methylsulfonyl)piperidin-4-yl]acetyl}-3-[(thiophen-2-ylmethyl)carbamoyl]piperazine-1-carboxylate], the IC50 was found to be 6 nM.
Turning to `COc1cc(CNC(=O)[C@@H]2CN(C(=O)Oc3ccc4ccccc4c3Cl)CCN2C(=O)[C@@H](CC2CCCCC2)NC2CCCCC2)ccc1CN` [Example 44, 1-chloronaphthalen-2-yl (3S)-3-{[4-(aminomethyl)-3-methoxybenzyl]carbamoyl}-4-(N,3-dicyclohexyl-D-alanyl)piperazine-1-carboxylate], the IC50 is 2.7 nM.
With `CS(=O)(=O)NCCCC[C@@H](NC1CCC2(CC1)CCN(Cc1ccccc1)C2)C(=O)N1CCN(C(=O)Oc2ccccc2Cl)C[C@H]1C(=O)NCc1cccs1` (stereo partly drawn) [Example 54, 2-chlorophenyl (3S)-4-[N^2-(2-benzyl-2-azaspiro[4.5]dec-8-yl)-N~6~- (methylsulfonyl)-D-lysyl]-3-[(thiophen-2-ylmethyl)carbamoyl]piperazine-1-carboxylate], the IC50 was determined as 8.1 nM.
As for `NCc1cccc(OC(=O)N2CCN(C(=O)[C@@H](CC3CCCCC3)NC3CCCCC3)[C@H](C(=O)NCc3cccs3)C2)c1Cl` [Example 55, 3-(aminomethyl)-2-chlorophenyl (3S)-4-(N,3-dicyclohexyl-D-alanyl)-3-[(thiophen-2-ylmethyl)carbamoyl]piperazine-1-carboxylate], the IC50 turned out to be 1.1 nM.
Regarding `NCc1ccc(OC(=O)N2CCN(C(=O)[C@@H](CC3CCCCC3)NC3CCC4(CC3)CCN(Cc3ccccc3)C4)[C@H](C(=O)NCc3cccs3)C2)c2ccccc12` (stereo partly drawn) [Example 59, 4-(aminomethyl)naphthalen-1-yl (3S)-4-[N-(2-benzyl-2-azaspiro[4.5]dec-8-yl)-3-cyclohexyl-D-alanyl]-3-[(thiophen-2-ylmethyl)carbamoyl]piperazine-1-carboxylate], the IC50 turned out to be 4.6 nM.
`CCS(=O)(=O)N1CCC([C@@H](NC2CCCCC2)C(=O)N2CCN(C(=O)Oc3ccccc3Cl)C[C@H]2C(=O)NCc2cccs2)CC1` [Example 61, 2-chlorophenyl (3S)-4-{(2R)-2-(cyclohexylamino)-2-[1-(ethylsulfonyl)piperidin-4-yl]acetyl}-3-[(thiophen-2-ylmethyl)carbamoyl]piperazine-1-carboxylate]: the IC50 was 4.2 nM.
Turning to `O=C(NCc1cccs1)[C@@H]1CN(C(=O)Oc2ccccc2Cl)CCN1C(=O)[C@H](NC1CCCCC1)C1CCN(S(=O)(=O)C2CC2)CC1` [Example 62, 2-chlorophenyl (3S)-4-{(2R)-2-(cyclohexylamino)-2-[1-(cyclopropylsulfonyl)piperidin-4-yl]acetyl}-3-[(thiophen-2-ylmethyl)carbamoyl]piperazine-1-carboxylate], the IC50 is 1.7 nM.
As to `CC(C)S(=O)(=O)N1CCC([C@@H](NC2CCCCC2)C(=O)N2CCN(C(=O)Oc3ccccc3Cl)C[C@H]2C(=O)NCc2cccs2)CC1` [Example 63, 2-chlorophenyl (3S)-4-[(2R)-2-(cyclohexylamino)-2-{1-[(1-methylethyl)sulfonyl]piperidin-4-yl}acetyl]-3-[(thiophen-2-ylmethyl)carbamoyl]piperazine-1-carboxylate], the IC50 is 2.6 nM.
The result for `CC(C)(C)C(=O)N1CCC([C@@H](NC2CCCCC2)C(=O)N2CCN(C(=O)Oc3ccccc3Cl)C[C@H]2C(=O)NCc2cccs2)CC1` [Example 69, 2-chlorophenyl (3S)-4-{(2R)-2-(cyclohexylamino)-2-[1-(2,2-dimethylpropanoyl)piperidin-4-yl]acetyl}-3-[(thiophen-2-ylmethyl)carbamoyl]piperazine-1-carboxylate] reads 8.4 nM; that for `CS(=O)(=O)NCCCC[C@@H](NC1CCCCC1)C(=O)N1CCN(C(=O)Oc2ccc3ccccc3c2Cl)C[C@H]1C(=O)NCc1cccs1` [Example 70, 1-chloronaphthalen-2-yl (3S)-4-[N^2-cyclohexyl-N^6-(methylsulfonyl)-D-lysyl]-3-[(thiophen-2-ylmethyl)carbamoyl]piperazine-1-carboxylate], 20 nM.
As to `CN(C)CCCC[C@@H](NC1CCCCC1)C(=O)N1CCN(C(=O)Oc2ccccc2Cl)C[C@H]1C(=O)NCc1cccs1` [Example 73, 2-chlorophenyl (3S)-4-(N^2-cyclohexyl-N^6,N^6-dimethyl-D-lysyl)-3-[(thiophen-2-ylmethyl)carbamoyl]piperazine-1-carboxylate], the IC50 turned out to be 1.1 nM.

One may read the IC50 as the midpoint of a concentration-inhibition curve.
